Experimental data taken from patent US7838548B2, “Compounds and methods for treating toll-like receptor 2-related diseases and conditions” (Eisai R&D Management Co., Ltd., priority 2003, dated 2010).

How the values were obtained:
Format in all cases: cell-based
human TLR2 [1] = target: T1, human TLR2 (Homo sapiens, UniProt O60603); assay: TLR2 antagonism assay, HEK-TLR2-ELAM luciferase reporter cells stimulated with Pam3CSK4
T1 construct: expressed in transfected cells
Protocol: (§1) Either Pam3CSK4 and R-MALP-2 lipopeptides (EMC-Microcollections), or lipopolysaccharide (LPS, List Biologicals) are dissolved in water to a concentration of 1 mg/mL, sonicated 5 times for 30 seconds, and stored in aliquots at −20° C. Prior to addition to cells, an aliquot of the dissolved ligand is sonicated for 1 minute and then is diluted in medium to 2 ng/mL Pam3CSK4, 16 ng/mL R-MALP-2, or 100 ng/mL LPS. The final concentration in the assay is 0.2 ng/mL Pam3CSK4, 1.6 ng/mL R-MALP-2, or 10 ng/mL LPS.
(§2) The test compounds are stored as 30 mM stocks in […]. The final concentrations of the test compounds in the assay are 0.1, 0.3, 1, 3, 10, and 30 μM in 0.2% DMSO. 0.2% DMSO is used in the assay as a control.
(§3) HEK-TLR2-ELAM cells were generated by a two-step method. In step 1, Hek293 cells were transfected with pcDNA3.0 encoding human TLR2 followed by antibiotic selection with G418 in D-MEM supplemented with 10% fetal bovine serum (Gibco BRL) to generate Hek-TLR2 cells. In step 2, Hek-TLR2 cells were transfected with pELAM-luc/Zeo followed by antibiotic selection with Zeocin in D-MEM supplemented with 10% fetal bovine serum. Transfectants were screened for TLR2 responsiveness by measuring ligand-induced pELAM-luciferase reporter activity, and analyzed for TLR2 mRNA expression by RT-PCR.
Step 1. On day 1, HEK-TLR2-ELAM cells are plated at 2×10^5 cells/mL, 80 μL/well, in 96-well black plates. The cells are incubated at 37° C., 5% CO2, for 24 hours. The growth medium used is D-MEM, 10% fetal bovine serum, 2 mM L-glutamine, 10 μg/mL Ciprofloxacin, 300 μg/mL Geneticin (G418), and 150 μg/mL Zeocin.
Step 2. On day 2, 10 μL of each test compound is added to the wells, and 10 μL lipopeptide is added to all of the wells. The plates are then incubated at 37° C., 5% CO2, for 18 hours.
(§4) Step 3. On day 3, 25 μL of Steady-Glo reagent (Promega, Inc.) is added to each well. The plates are then shaken for 5 minutes, and the chemiluminescence of each well is read in a Wallac1450 MicroBetaTriLux counter. Dose-response curves were plotted in KaleidaGraph, version 3.5 Synergy Software, and IC50 values were calculated.

TLR4 = target: T2, TLR4 (Homo sapiens, UniProt O00206); assay: TLR4 antagonism assay, HEK-TLR4-MD2-ELAM luciferase reporter cells stimulated with LPS plus soluble CD14; settings: Table 6, 10 ng/mL LPS plus 10 nM soluble CD14, 18 hours
T2 construct: expressed in transfected cells
Protocol: as §1, §2
HEK293 cells stably carrying plasmids for TLR4, MD2, and the NF-κB reporter gene ELAM-1-luciferase (HEK-TLR4-MD2-ELAM) were generated as described by Yang et al., J. Biol. Chem. 275:20861-20866, 2000.
Step 1. On day 1, HEK-TLR4-MD2-ELAM cells were plated at 4×10^5 cells/mL, 80 μL/well, in 96-well black plates. The growth medium used is D-MEM, 10% fetal bovine serum, 2 mM L-glutamine, 10 μg/mL Ciprofloxacin, 300 μg/mL Geneticin (G418), 150 μg/mL Zeocin, and 50 μg/mL Hygromycin.
Step 2. On day 2, 10 μL of each test compound is added to the wells, and 10 μL of LPS plus 10 nM soluble CD14 (Biometec) is added to all of the wells. The plates are then incubated at 37° C., 5% CO2, for 18 hours.
as §4

human TLR2 [2] = target: T1, human TLR2; assay: TLR2 antagonism assay, HEK-TLR2-ELAM luciferase reporter cells stimulated with R-MALP-2; settings: Table 7, diacylated lipopeptide R-MALP-2 (TLR2 interacts with TLR6), 1.6 ng/mL
Protocol: as §1, §2
as §3, with “In step 2, Hek-TLR2 cells were transfected with pELAM-luc/Zeo followed by antibiotic selection with Zeocin in D-MEM supplemented with 10% fetal bovine serum.” left out, “RT-PCR. […]” for “RT-PCR.”
Step 3. […] The plates are then shaken for 5 minutes, and the chemiluminescence of each well is read in a Wallac1450 MicroBetaTriLux counter. Dose-response curves were plotted in KaleidaGraph, version 3.5 Synergy Software, and IC50 values were calculated. […]

[3] = Table 6, 0.2 ng/mL Pam3CSK4, 18 hours, ELAM-luciferase reporter
[4] = Table 7, triacylated lipopeptide Pam3CSK4 (TLR2 associates with TLR1), 0.2 ng/mL

T2 sequence (O00206 24-839): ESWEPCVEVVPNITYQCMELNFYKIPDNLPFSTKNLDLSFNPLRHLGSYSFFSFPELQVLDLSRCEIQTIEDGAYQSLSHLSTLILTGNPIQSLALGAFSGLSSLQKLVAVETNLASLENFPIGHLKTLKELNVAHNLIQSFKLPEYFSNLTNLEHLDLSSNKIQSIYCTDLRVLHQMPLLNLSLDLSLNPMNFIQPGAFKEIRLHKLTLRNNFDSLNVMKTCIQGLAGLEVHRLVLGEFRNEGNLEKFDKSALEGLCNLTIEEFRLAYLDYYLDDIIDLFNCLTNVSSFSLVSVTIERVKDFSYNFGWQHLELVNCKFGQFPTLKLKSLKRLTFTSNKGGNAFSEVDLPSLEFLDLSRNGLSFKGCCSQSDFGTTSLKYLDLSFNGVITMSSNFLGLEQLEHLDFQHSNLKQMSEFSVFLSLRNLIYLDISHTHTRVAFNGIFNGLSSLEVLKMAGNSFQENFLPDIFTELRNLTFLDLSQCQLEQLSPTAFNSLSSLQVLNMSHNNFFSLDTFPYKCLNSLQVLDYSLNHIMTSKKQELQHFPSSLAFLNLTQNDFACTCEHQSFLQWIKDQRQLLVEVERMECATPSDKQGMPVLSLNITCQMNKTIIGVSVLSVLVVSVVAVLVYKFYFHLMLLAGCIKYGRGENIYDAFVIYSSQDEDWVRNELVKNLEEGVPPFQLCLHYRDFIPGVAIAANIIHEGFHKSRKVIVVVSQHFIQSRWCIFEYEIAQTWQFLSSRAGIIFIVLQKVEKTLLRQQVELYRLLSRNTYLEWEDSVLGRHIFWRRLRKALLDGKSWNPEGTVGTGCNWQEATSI
T2 sequence (Q9Y6Y9 17-160 partner limits assumed): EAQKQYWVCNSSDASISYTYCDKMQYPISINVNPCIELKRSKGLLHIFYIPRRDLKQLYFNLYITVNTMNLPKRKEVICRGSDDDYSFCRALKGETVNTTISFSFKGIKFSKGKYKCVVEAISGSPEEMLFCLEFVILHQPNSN
T1 sequence (O60603 21-784): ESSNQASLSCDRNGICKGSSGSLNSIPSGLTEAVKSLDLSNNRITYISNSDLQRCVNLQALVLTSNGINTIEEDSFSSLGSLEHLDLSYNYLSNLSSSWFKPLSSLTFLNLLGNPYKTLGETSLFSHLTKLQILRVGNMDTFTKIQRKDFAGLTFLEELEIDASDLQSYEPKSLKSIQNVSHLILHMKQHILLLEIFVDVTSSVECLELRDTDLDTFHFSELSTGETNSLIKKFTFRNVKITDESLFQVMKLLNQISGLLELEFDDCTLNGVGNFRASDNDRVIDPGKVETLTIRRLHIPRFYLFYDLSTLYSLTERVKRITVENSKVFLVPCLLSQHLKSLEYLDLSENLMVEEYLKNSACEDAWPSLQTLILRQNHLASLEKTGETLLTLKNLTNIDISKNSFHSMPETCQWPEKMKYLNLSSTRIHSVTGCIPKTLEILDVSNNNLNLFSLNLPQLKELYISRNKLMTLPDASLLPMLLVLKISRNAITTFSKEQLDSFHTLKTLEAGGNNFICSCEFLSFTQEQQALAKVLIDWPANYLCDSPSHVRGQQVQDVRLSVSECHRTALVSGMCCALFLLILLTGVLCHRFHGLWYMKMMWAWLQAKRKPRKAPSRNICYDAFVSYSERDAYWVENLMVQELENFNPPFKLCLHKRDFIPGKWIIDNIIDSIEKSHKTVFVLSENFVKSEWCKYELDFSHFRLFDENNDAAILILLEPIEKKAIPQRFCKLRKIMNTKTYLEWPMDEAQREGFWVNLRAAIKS

SMILES | IC50 (human TLR2 [1]; [3]) [nM] | IC50 (TLR4) [nM] | IC50 (human TLR2 [1]; [4]) [nM] | IC50 (human TLR2 [2]) [nM]
CCCCCCCCCCCCCCCCCCCC(=O)N[C@@H](COP(=O)(O)OCCNC(=O)[C@@H](NC(=O)Cc1c[nH]c2ccccc12)[C@@H](C)CC)C(=O)NCCC(O)CCCCCCCCCC (mixture of isomers) [ER811395] | 650 | 1800 | – | –
CCCCCCCCCCCCCCCC(=O)OC[C@H](CNC(=O)[C@H](COP(=O)(O)OCCNC(=O)[C@@H](NC(=O)Cc1c[nH]c2ccc(OCc3ccccc3)cc12)[C@@H](C)CC)NC(C)=O)OC(=O)CCCCCCCCCCCCCCC [ER811245] | 430 | 3400 | 440 | 30000
CCCCCCCCCCCCCCCC(=O)OCCCNC(=O)C(COP(=O)(O)OCCNC(=O)[C@@H](NC(=O)Cc1c[nH]c2ccccc12)[C@@H](C)CC)NC(=O)CCCCCCCCCCC (stereo partly drawn) [ER811212] | 390 | 1000 | – | –
CCCCCCCCCCCCCCCCCCCC(=O)N[C@@H](COP(=O)(O)OCCNC(=O)[C@@H](NC(=O)Cc1c[nH]c2ccccc12)[C@@H](C)CC)C(=O)NCCC(O)CCCCCCCCCCCCC (mixture of isomers) [ER811393] | – | 12300 | – | –
CCCCCCCCCCCCCC(=O)N[C@H](COCC[C@@H](CCCCCCC)OC(=O)CCCCCCCCCCC)COP(=O)(O)OCCNC(=O)[C@@H](NC(=O)Cc1c[nH]c2ccccc12)[C@@H](C)CC [ER808977] | – | – | 240 | 20000
CCCCCCCCCCCCCCCC(=O)N[C@@H](COP(=O)(O)OCCNC(=O)[C@@H](NC(=O)Cc1c[nH]c2ccc(-c3ccccc3)cc12)[C@@H](C)CC)C(=O)NCCCOC(=O)CCCCCCCCCCC [ER811243] | – | 200 | – | –
CCCCCCCCCCCCCCCC(=O)OC[C@H](CNC(=O)[C@@H](COP(=O)(O)OCCNC(=O)[C@@H](NC(=O)Cc1c[nH]c2ccc(OCc3ccccc3)cc12)[C@@H](C)CC)NC(C)=O)OC(=O)CCCCCCCCCCCCCCC [ER811261] | 500 | 1800 | – | –
CCCCCCCCCCCCCCCC(=O)N[C@@H](COP(=O)(O)OCCNC(=O)[C@@H](NC(=O)Cc1c[nH]c2ccc(Br)cc12)[C@@H](C)CC)C(=O)NCCCOC(=O)CCCCCCCCCCC [ER811232] | 750 | 400 | – | –

Continued by falling IC50 (TLR4), values first:

IC50 (human TLR2 [1]; [3]) [nM] | IC50 (TLR4) [nM] | IC50 (human TLR2 [1]; [4]) [nM] | IC50 (human TLR2 [2]) [nM] | SMILES
– | 6600 | – | – | CCCCCCCCCCCCCCCCCCCC(=O)N[C@@H](COP(=O)(O)OCCNC(=O)[C@@H](NC(=O)Cc1c[nH]c2ccc(OCc3ccccc3)cc12)[C@@H](C)CC)C(=O)NCCC(O)CCCCCCCCCCCCC (mixture of isomers) [ER812011]
770 | 3600 | – | – | CCCCCCCCCCCCCCCCCCCC(=O)N[C@@H](COP(=O)(O)OCCNC(=O)[C@@H](NC(=O)Cc1c[nH]c2ccc(OCc3ccccc3)cc12)C(C)C)C(=O)NCCC(O)CCCCCCCCCCCCC (mixture of isomers) [ER811254]
440 | 700 | – | – | CCCCCCCCCCCCCCCC(=O)N[C@@H](COP(=O)(O)OCCNC(=O)[C@@H](NC(=O)Cc1c[nH]c2ccccc12)[C@@H](C)CC)C(=O)NCCCOC(=O)CCCCCCCCCCC [ER811211]
